Experiment [1] has as its system S. mansoni adult schistosomes. Briefly: Schistosomiasis screening, adult worm killing (S. mansoni). The experiment is classed as cell-based, Schistosoma mansoni. Conditions: for Kill % S. m: adult worms, final concentration 143 μM, 45 minutes incubation, washed, cultured 10-14 days, read day 14. From the text: (§1) Schistosomiasis screening methods Strains of S. mansoni, S. haematobium, and S. japonicum were maintained by passage through species-specific snail intermediate hosts (Biomphlaria glabrata, Bulinus truncatus, and Oncomelania hupensis, respectively) and Golden Syrian Hamsters as a definitive host. Definitive host animals were sacrificed in accordance with IACUC protocol (UTHSCSA IACUC Protocol #08039) by intraperitoneal injection using Fatal-Plus (Butler Animal Health, Ohio), a sodium pentobarbital solution, with 10% heparin added. The adult parasites were obtained by perfusion as previously described using 0.9% saline containing EDTA.^1 Derivatives were solubilized in DMSO and diluted to working concentration of 50 mM and added directly to each well of a 24-well plate within 2-24 hours after harvesting adult schistosomes from the hamsters at a final concentration of 143 μM. Each analog was tested in triplicate. DMSO, oxamniquine (OXA, the parent drug known to kill only S. mansoni), or Hycanthone (HC, a carcinogen known to kill S. mansoni and S. haematobium) were used as controls as needed. Drugs were incubated with the worms at 37° C., 5% CO2 for 45 minutes, mimicking physiological conditions. The worms were washed with plain media 3 times to remove any residual derivatives. Worms were then incubated in culture media as previously described for a period of 10-14 days. On day 14, the assay gives % worms alive as an efficacy data point. For comparison, Oxaminiquine scores 50% alive in this assay.

For experiment [2], the system named is S. haematobium adult schistosomes. Put plainly: Schistosomiasis screening, adult worm killing (S. haematobium). Format: cell-based, Schistosoma haematobium. As to conditions: adult worms, final concentration 143 μM, 45 minutes incubation, washed, cultured 10-14 days, read day 14.
Source text: as §1

Experiment [3] concerns S. japonicum adult schistosomes. Briefly: Schistosomiasis screening, adult worm killing (S. japonicum). Format: cell-based, Schistosoma japonicum. Conditions: adult worms, final concentration 143 μM, 45 minutes incubation, washed, cultured 10-14 days, read day 14.
Source text: as §1

As to `CCN(CC)CCNC(=O)c1cccc2c(N)c3ccccc3nc12` [CIDD-0150239], the “Kill % S. m” value in experiment [1] is listed as 36%.

As for `CC(=O)Nc1cnc(COC(N)=O)n1C` [CIDD-0150332], the “Kill % S. m” value in experiment [1] came to 17%.

For the molecule `CCCS(=O)(=O)OCC` [CIDD-0150333], the “Kill % S. m” value in experiment [1] worked out at 20%.

With `Cc1c2ccccc2nc2c(C(=O)NCCN(C)C)cccc12` [CIDD-0150237], in experiment [1], the “Kill % S. m” value is given as 33%.

On to `CC(C)NCC1CCc2cc(CO)c([N+](=O)[O-])cc2N1` (stereo not shown) [Oxaminiquine, oxamniquine, reference compound], for which the “% worms alive” value in experiment [1] (day 14, control drug for comparison, species not given) is reported as 50%.

In the case of `Cc1nc(SC[C@H](N)C(=O)O)c(N)n1C` [CIDD-0150331], in experiment [1], the “Kill % S. m” value was 10%.

For the molecule `C[C@@H](O)[C@H]1C(=O)N2C(C(=O)O)=C(S[C@@H]3CN[C@H](C(=O)Nc4cccc(C(=O)O)c4)C3)[C@H](C)[C@H]12` [CIDD-0150610], the “Kill % S. m” value in experiment [1] was 100%. Further, the “Kill % S. h” value in experiment [2] is reported as 100%. The “Kill % S. j” value in experiment [3] is on record as 100%.

Consider `Nc1c2ccccc2nc2c(C(=O)NCCNCCO)cccc12` [CIDD-0150236], for which the “Kill % S. m” value in experiment [1] was 43%.

With `CN(C)CCCNC(=O)c1cccc2c(N)c3ccccc3nc12` [CIDD-0150238], the “Kill % S. m” value in experiment [1] is 6%.

For `O=[N+]([O-])c1ccc2c3c1ccc1cccc(c13)[C@@H](O)[C@H]2O` [CIDD-0150328], the “Kill % S. m” value in experiment [1] is given as 16%.

As for `O=C(O)CCCn1c2ccccc2c(=O)c2ccccc21` [CIDD-0150302], in experiment [1], the “Kill % S. m” value came to 80%. Further, in experiment [2], the “Kill % S. h” value worked out at 20%. Moreover, in experiment [3], the “Kill % S. j” value worked out at 40%.

Take `O[C@@H]1c2ccccc2-c2cc3ccccc3c(F)c2[C@H]1O` [CIDD-0150242]: the “Kill % S. m” value in experiment [1] is 56%.

With `C=CCN(N=O)C(C)OC(C)=O` (stereo not shown) [CIDD-0150326], the “Kill % S. m” value in experiment [1] stood at 3.3%.

Regarding `Oc1cccc2c1ccc1c(F)c3ccccc3cc12` [CIDD-0150240], the “Kill % S. m” value in experiment [1] was 20%.

For `O=[N+]([O-])c1ccc2c(O)cc3cccc4ccc1c2c43` [CIDD-0150329], in experiment [1], the “Kill % S. m” value came out at 40%.

For `Cn1c([N+](=O)[O-])nc2ccc3ccccc3c21` [CIDD-0150606], in experiment [1], the “Kill % S. m” value stood at 100%. Besides, in experiment [2], the “Kill % S. h” value is on record as 85.7%.

In the case of `CCCCCS(=O)(=O)OCC` [CIDD-0150334], the “Kill % S. m” value in experiment [1] was found to be 47%.

`Cn1c([N+](=O)[O-])nc2c3ccccc3ccc21` [CIDD-0150605]: the “Kill % S. m” value in experiment [1] is recorded as 13%.

In the case of `O=Nc1ccc2ccc3cc4ccccc4c4ccc1c2c34` [CIDD-0150608], the “Kill % S. m” value in experiment [1] stood at 93.3%. For the same molecule, the “Kill % S. h” value in experiment [2] turned out to be 71.4%.

Take `O=[N+]([O-])c1cc(NCC2(Cc3cccc(C(F)(F)F)c3)CCN(Cc3c[nH]c4ccccc34)C2)ccc1CO` (stereo not shown) [CIDD-0149830, (4-(((1-((1H-indol-3-yl)methyl)-3-(3-(trifluoromethyl)benzyl)pyrrolidin-3-yl)methyl)amino)-2-nitrophenyl)methanol]: the “Kill % S. m” value in experiment [1] was found to be 100%. For the same molecule, the “Kill % S. h” value in experiment [2] was determined as 100%. Further, in experiment [3], the “Kill % S. j” value amounted to 100%.

Take `O=[N+]([O-])c1ccc2cc(O)c3cccc4ccc1c2c43` [CIDD-0150330]: the “Kill % S. m” value in experiment [1] was found to be 10%.

As to `O=S([O-])([O-])=S.O=S([O-])([O-])=S.[Ag+].[Na+].[Na+].[Na+]` [CIDD-0150303], the “Kill % S. m” value in experiment [1] came to 100%. The “Kill % S. h” value in experiment [2] was 40%. Moreover, the “Kill % S. j” value in experiment [3] was 100%.

As for `Cc1c[nH]c2c1C13CC1CN(S(C)(=O)=O)C3=CC2=O` (stereo not shown) [CIDD-0150241], the “Kill % S. m” value in experiment [1] was found to be 33%.

For the molecule `CC(=O)OC(C)N(N=O)C1CC1` (stereo not shown) [CIDD-0150327], the “Kill % S. m” value in experiment [1] is given as 3.3%.

Take `CN(C)CCNC(=O)c1cccc2c(N)c3cc(Cl)ccc3nc12` [CIDD-0150235]: the “Kill % S. m” value in experiment [1] is given as 60%.

Regarding `OCC(O)COc1ccccc1C1CCCC1` (stereo not shown) [CIDD-0150607], in experiment [1], the “Kill % S. m” value is 50%.

Turning to `c1cc2ccc3c4ccc5cccc(c(c1)c23)c54` [CIDD-0150609], the “Kill % S. m” value in experiment [1] was found to be 16.6%.

These data come from patent US20220227709A1, “COMPOSITIONS AND METHODS FOR TREATING SCHISTOSOMA INFECTIONS” (THE BOARD OF REGENTS OF THE UNIVERSITY OF TEXAS SYSTEM, priority 2019, published 2022).
